Laboratory results published in ChEMBL document CHEMBL4420076, “Amylin and calcitonin receptor agonist” (2017).
In brackets after ≈: the same amount, converted by molar mass. Square brackets hold non-standard residues; d marks the D form. Peptide text beside a SMILES is read from it. * marks the point of attachment. ξ: configuration not given here. C18 diacid = O=C(O)CCCCCCCCCCCCCCCCC(=O)*; Ile(3ξ) = CCC(C)[C@H](N)C(=O)O

Assays:
[1] = target: T1, Amylin receptor AMY3; CALCR/RAMP3 (Homo sapiens, UniProt O60896+P30988); assay: Agonist activity at human amylin receptor expressed in BHK570 cells co-expressing RAMP3 assessed as increase in intracellular cAMP concentration incubated for 3 hrs in absence of albumin by CRE luciferase reporter gene assay; format: functional, cell-based
T1 sequence (P30988 whole entry): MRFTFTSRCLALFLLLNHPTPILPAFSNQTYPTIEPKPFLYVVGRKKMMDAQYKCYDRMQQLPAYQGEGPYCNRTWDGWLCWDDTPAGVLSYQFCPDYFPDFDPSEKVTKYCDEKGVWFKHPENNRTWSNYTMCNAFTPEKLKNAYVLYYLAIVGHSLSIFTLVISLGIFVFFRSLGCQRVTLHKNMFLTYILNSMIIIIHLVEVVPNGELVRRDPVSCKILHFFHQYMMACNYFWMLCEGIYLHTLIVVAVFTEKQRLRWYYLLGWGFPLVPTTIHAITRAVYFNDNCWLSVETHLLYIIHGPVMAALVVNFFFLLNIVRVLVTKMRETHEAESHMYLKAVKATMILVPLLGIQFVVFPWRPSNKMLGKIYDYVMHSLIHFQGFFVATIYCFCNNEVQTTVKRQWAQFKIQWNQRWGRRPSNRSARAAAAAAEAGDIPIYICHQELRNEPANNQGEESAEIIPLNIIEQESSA
T1 sequence (O60896 whole entry): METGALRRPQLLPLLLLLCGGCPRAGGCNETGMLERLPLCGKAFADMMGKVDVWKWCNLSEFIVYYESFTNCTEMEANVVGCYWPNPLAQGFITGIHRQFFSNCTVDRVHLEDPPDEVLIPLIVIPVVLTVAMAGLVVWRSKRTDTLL

Calcitonin receptor = target: T2, Calcitonin receptor (Homo sapiens, UniProt P30988); assay: Agonist activity at human calcitonin receptor expressed in BHK570 cells assessed as increase in intracellular cAMP concentration incubated for 3 hrs in absence of albumin by CRE luciferase reporter gene assay; format: functional, cell-based
T2 sequence (P30988 whole entry): T1 sequence (P30988 whole entry)

[2] = Solubility in 100 mM glycylglycine buffer at pH 3.0 incubated for 18 hrs by UPLC analysis; format: physicochemical
[3] = Solubility in 100 mM bistrispropane buffer at pH 7.0 incubated for 18 hrs by UPLC analysis; format: physicochemical
[4] = Solubility in 100 mM bistrispropane buffer at pH 6.5 incubated for 18 hrs by UPLC analysis; format: physicochemical
[5] = Solubility in 100 mM bistrispropane buffer at pH 6.0 incubated for 18 hrs by UPLC analysis; format: physicochemical
[6] = Solubility in 100 mM bistrispropane buffer at pH 7.5 incubated for 18 hrs by UPLC analysis; format: physicochemical
[7] = Solubility in 100 mM bistrispropane buffer at pH 8.0 incubated for 18 hrs by UPLC analysis; format: physicochemical
[8] = Solubility in 100 mM glycylglycine buffer at pH 5.0 incubated for 18 hrs by UPLC analysis; format: physicochemical
[9] = Solubility in 100 mM glycylglycine buffer at pH 4.0 incubated for 18 hrs by UPLC analysis; format: physicochemical

## CC(C)C[C@H](NC(=O)[C@H](C)NC(=O)[C@H](C)NC(=O)[C@@H](NC(=O)[C@H](CO)NC(=O)[C@H](CC(C)C)NC(=O)[C@H](CCC(=O)O)NC(=O)[C@H](CO)NC(=O)[C@H](C)NC(=O)[C@H](CCC(=O)O)NC(=O)CCCCCCCCCCCCCCCCC(=O)O)[C@@H](C)O)C(=O)NCC(=O)N[C@@H](CCCNC(=N)N)C(=O)N[C@@H](CC(C)C)C(=O)N[C@@H](CO)C(=O)N[C@@H](C)C(=O)N[C@@H](CCC(=O)O)C(=O)N[C@@H](CC(C)C)C(=O)N[C@@H](Cc1cnc[nH]1)C(=O)N[C@@H](CCC(=O)O)C(=O)N[C@@H](CC(C)C)C(=O)N[C@@H](C)C(=O)N[C@H](C(=O)N[C@@H](Cc1ccc(O)cc1)C(=O)N1CCC[C@H]1C(=O)N[C@@H](CCCNC(=N)N)C(=O)N[C@H](C(=O)N[C@@H](CCC(=O)O)C(=O)N[C@H](C(=O)NCC(=O)N1CCC[C@H]1C(=O)N[C@@H](CCC(=O)O)C(=O)N[C@@H](CO)C(=O)N1CCC[C@H]1C(N)=O)[C@@H](C)O)[C@@H](C)O)[C@@H](C)O ({C18 diacid}-EASELSTAALGRLSAELHELATYPRTETGPESP-NH2)
[1]
  EC50: 0.011 nM
Calcitonin receptor
  EC50: 0.007 nM

## CC[C@@H](C)[C@H](NC(=O)[C@H](C)NC(=O)[C@@H](NC(=O)[C@H](CO)NC(=O)[C@@H](NC(=O)[C@H](CCC(=O)O)NC(=O)[C@H](CO)NC(=O)[C@H](C)NC(=O)[C@H](CCC(=O)O)NC(=O)CCCCCCCCCCCCCCCCC(=O)O)[C@H](C)CC)[C@@H](C)O)C(=O)N[C@@H](CC(C)C)C(=O)NCC(=O)N[C@@H](CCCNC(=N)N)C(=O)N[C@@H](CC(C)C)C(=O)N[C@@H](CO)C(=O)N[C@@H](C)C(=O)N[C@@H](CCC(=O)O)C(=O)N[C@@H](CC(C)C)C(=O)N[C@@H](Cc1cnc[nH]1)C(=O)N[C@@H](CCC(=O)O)C(=O)N[C@@H](CC(C)C)C(=O)N[C@@H](C)C(=O)N[C@H](C(=O)N[C@@H](CC(C)C)C(=O)N1CCC[C@H]1C(=O)N[C@@H](CCCNC(=N)N)C(=O)N[C@H](C(=O)N[C@@H](CCC(=O)O)C(=O)N[C@H](C(=O)NCC(=O)N1CCC[C@H]1C(=O)N[C@@H](CCC(=O)O)C(=O)N[C@@H](CO)C(=O)N1CCC[C@H]1C(N)=O)[C@@H](C)O)[C@@H](C)O)[C@@H](C)O
[2]
  solubility at 18 h: ≥ 200 µM
[3]
  solubility at 18 h: ≥ 200 µM
[4]
  solubility at 18 h: ≥ 200 µM
[5]
  solubility at 18 h: ≥ 200 µM
[6]
  solubility at 18 h: ≥ 200 µM
[7]
  solubility at 18 h: ≥ 200 µM
[8]
  solubility at 18 h: ≥ 200 µM

## CC(C)C[C@H](NC(=O)[C@H](CCCNC(=N)N)NC(=O)CNC(=O)[C@H](CC(C)C)NC(=O)[C@@H](NC(=O)[C@H](C)NC(=O)[C@@H](NC(=O)[C@H](CO)NC(=O)[C@@H](NC(=O)[C@H](CCC(=O)O)NC(=O)[C@H](CO)NC(=O)[C@H](C)NC(=O)[C@H](CCC(=O)O)NC(=O)CCCCCCCCCCCCCCCCC(=O)O)C(C)C)[C@@H](C)O)C(C)C)C(=O)N[C@@H](CO)C(=O)N[C@@H](C)C(=O)N[C@@H](CCC(=O)O)C(=O)N[C@@H](CC(C)C)C(=O)N[C@@H](Cc1cnc[nH]1)C(=O)N[C@@H](CCC(=O)O)C(=O)N[C@H](C(=O)N[C@@H](C)C(=O)N[C@H](C(=O)N[C@@H](CC(C)C)C(=O)N1CCC[C@H]1C(=O)N[C@@H](CCCNC(=N)N)C(=O)N[C@H](C(=O)N[C@@H](CCC(=O)O)C(=O)N[C@H](C(=O)NCC(=O)N1CCC[C@H]1C(=O)N[C@@H](CCC(=O)O)C(=O)N[C@@H](CO)C(=O)N1CCC[C@H]1C(N)=O)[C@@H](C)O)[C@@H](C)O)[C@@H](C)O)C(C)C ({C18 diacid}-EASEVSTAVLGRLSAELHEVATLPRTETGPESP-NH2)
[3]
  solubility at 18 h: ≥ 200 µM
[4]
  solubility at 18 h: ≥ 200 µM
[1]
  EC50: 0.023 nM
Calcitonin receptor
  EC50: 0.054 nM
[5]
  solubility at 18 h: ≥ 200 µM
[6]
  solubility at 18 h: ≥ 200 µM
[7]
  solubility at 18 h: ≥ 200 µM

## CCC(C)[C@H](NC(=O)[C@@H](NC(=O)[C@H](C)NC(=O)[C@@H](NC(=O)[C@H](CO)NC(=O)[C@H](CC(C)C)NC(=O)[C@H](CCC(=O)O)NC(=O)[C@H](CO)NC(=O)[C@H](C)NC(=O)[C@H](CCC(=O)O)NC(=O)CCCCCCCCCCCCCCCCC(=O)O)[C@@H](C)O)C(C)C)C(=O)NCC(=O)N[C@@H](CCCNC(=N)N)C(=O)N[C@@H](CC(C)C)C(=O)N[C@@H](CO)C(=O)N[C@@H](C)C(=O)N[C@@H](CCC(=O)O)C(=O)N[C@@H](CC(C)C)C(=O)N[C@@H](Cc1cnc[nH]1)C(=O)N[C@@H](CCC(=O)O)C(=O)N[C@@H](CC(C)C)C(=O)N[C@@H](C)C(=O)N[C@H](C(=O)N[C@@H](CC(C)C)C(=O)N1CCC[C@H]1C(=O)N[C@@H](CCCNC(=N)N)C(=O)N[C@H](C(=O)N[C@@H](CCC(=O)O)C(=O)N[C@H](C(=O)NCC(=O)N1CCC[C@H]1C(=O)N[C@@H](CCC(=O)O)C(=O)N[C@@H](CO)C(=O)N1CCC[C@H]1C(N)=O)[C@@H](C)O)[C@@H](C)O)[C@@H](C)O (stereo not given in full) ({C18 diacid}-EASELSTAV[Ile(3ξ)]GRLSAELHELATLPRTETGPESP-NH2)
[2]
  solubility at 18 h: ≥ 200 µM
[3]
  solubility at 18 h: ≥ 200 µM
[9]
  solubility at 18 h: ≥ 200 µM
[4]
  solubility at 18 h: ≥ 200 µM
[5]
  solubility at 18 h: ≥ 200 µM
[6]
  solubility at 18 h: ≥ 200 µM
[7]
  solubility at 18 h: ≥ 200 µM
[8]
  solubility at 18 h: ≥ 200 µM

## CC(C)C[C@H](NC(=O)[C@H](CCCNC(=N)N)NC(=O)CNC(=O)[C@H](CC(C)C)NC(=O)[C@@H](NC(=O)[C@H](C)NC(=O)[C@@H](NC(=O)[C@H](CO)NC(=O)[C@H](CC(C)C)NC(=O)[C@H](CCC(=O)O)NC(=O)[C@H](CO)NC(=O)[C@H](C)NC(=O)CC[C@H](NC(=O)CCCCCCCCCCCCCCCCCCC(=O)O)C(=O)O)[C@@H](C)O)C(C)C)C(=O)N[C@@H](CO)C(=O)N[C@@H](CCC(N)=O)C(=O)N[C@@H](CCC(=O)O)C(=O)N[C@@H](CC(C)C)C(=O)N[C@@H](Cc1cnc[nH]1)C(=O)N[C@@H](CCC(=O)O)C(=O)N[C@@H](CC(C)C)C(=O)N[C@@H](CCC(N)=O)C(=O)N[C@H](C(=O)N[C@@H](Cc1ccc(O)cc1)C(=O)N1CCC[C@H]1C(=O)N[C@@H](CCCNC(=N)N)C(=O)N[C@H](C(=O)N[C@@H](CCC(=O)O)C(=O)N[C@H](C(=O)NCC(=O)N[C@@H](CO)C(=O)NCC(=O)N[C@H](C(=O)N[C@@H](Cc1ccc(O)cc1)C(N)=O)[C@@H](C)O)[C@@H](C)O)[C@@H](C)O)[C@H](C)O
[2]
  solubility at 18 h: ≥ 200 µM
[3]
  solubility at 18 h: ≥ 200 µM
[4]
  solubility at 18 h: ≥ 200 µM
[5]
  solubility at 18 h: ≥ 200 µM
[6]
  solubility at 18 h: ≥ 200 µM
[7]
  solubility at 18 h: ≥ 200 µM
[8]
  solubility at 18 h: 7 µM (≈ 27.6 µg/mL)

## CC[C@H](C)[C@H](NC(=O)[C@H](C)NC(=O)[C@@H](NC(=O)[C@H](CO)NC(=O)[C@@H](NC(=O)[C@H](CCC(=O)O)NC(=O)[C@H](CO)NC(=O)[C@H](C)NC(=O)[C@H](CCC(=O)O)NC(=O)CCCCCCCCCCCCCCCCC(=O)O)[C@@H](C)CC)[C@@H](C)O)C(=O)N[C@H](C(=O)NCC(=O)N[C@@H](CCCNC(=N)N)C(=O)N[C@@H](CC(C)C)C(=O)N[C@@H](CO)C(=O)N[C@@H](C)C(=O)N[C@@H](CCC(=O)O)C(=O)N[C@@H](CC(C)C)C(=O)N[C@@H](Cc1cnc[nH]1)C(=O)N[C@@H](CCC(=O)O)C(=O)N[C@@H](CC(C)C)C(=O)N[C@@H](C)C(=O)N[C@H](C(=O)N[C@@H](CC(C)C)C(=O)N1CCC[C@H]1C(=O)N[C@@H](CCCNC(=N)N)C(=O)N[C@H](C(=O)N[C@@H](CCC(=O)O)C(=O)N[C@H](C(=O)NCC(=O)N1CCC[C@H]1C(=O)N[C@@H](CCC(=O)O)C(=O)N[C@@H](CO)C(=O)N1CCC[C@H]1C(N)=O)[C@@H](C)O)[C@@H](C)O)[C@@H](C)O)[C@@H](C)CC ({C18 diacid}-EASEISTAIIGRLSAELHELATLPRTETGPESP-NH2)
[2]
  solubility at 18 h: ≥ 200 µM
[3]
  solubility at 18 h: ≥ 200 µM
[4]
  solubility at 18 h: ≥ 200 µM
[1]
  EC50: 0.01 nM
Calcitonin receptor
  EC50: 0.005 nM
[5]
  solubility at 18 h: ≥ 200 µM
[6]
  solubility at 18 h: ≥ 200 µM
[7]
  solubility at 18 h: ≥ 200 µM
[8]
  solubility at 18 h: ≥ 200 µM
